Measured values: patent publication US5409941A, “5-heteroyl indole derivatives” (Pfizer Inc., priority 1993, dated 1995)

Molecular target: T1, 5-HT1D (Bos taurus, UniProt F1MGM3)
T1 construct: from tissue
Assay: 5-HT1D activity, method of R. E. Heuring and S. J. Peroutka
Format: binding
Settings: not given
Description: The active compounds of the invention are evaluated as anti-migraine agents by testing the extent to which they mimic sumatriptan in contracting the dog isolated saphenous vein strip (P. P. A. Humphrey et al., Br. J. Pharmacol., 94, 1128 (1988)). This effect can be blocked by methiothepin, a known serotonin antagonist. Sumatriptan is known to be useful in the treatment of migraine and produces a selective increase in carotid vascular resistance in the anaesthetized dog. […] The active compounds are also evaluated using the method of R. E. Heuring and S. J. Peroutka (J. Neuroscience, 7, 894 (1987)).

T1 sequence (F1MGM3 1-403): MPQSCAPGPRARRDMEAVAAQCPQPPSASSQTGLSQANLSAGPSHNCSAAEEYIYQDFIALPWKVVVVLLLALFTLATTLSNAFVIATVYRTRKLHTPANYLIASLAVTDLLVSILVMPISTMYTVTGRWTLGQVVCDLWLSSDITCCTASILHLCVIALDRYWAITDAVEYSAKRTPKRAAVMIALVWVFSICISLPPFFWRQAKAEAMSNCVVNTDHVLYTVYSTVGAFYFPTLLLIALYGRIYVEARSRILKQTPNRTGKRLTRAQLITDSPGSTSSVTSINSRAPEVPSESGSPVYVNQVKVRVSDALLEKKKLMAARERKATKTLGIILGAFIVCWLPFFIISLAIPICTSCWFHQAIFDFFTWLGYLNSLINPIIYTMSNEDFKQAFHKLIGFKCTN

SMILES	IC50 [nM]
Cc1nc(-c2ccc3[nH]cc(C4=CCNCC4)c3c2)cs1 [Example 20, 4-[3-(1,2,5,6-Tetrahydropyrid-4-yl)indol-5-yl]-2-methylthiazole]	≥ 1000
Cc1csc(Cc2ccc3[nH]cc(C4=CCNCC4)c3c2)n1 [Example 26, 2-[3-(1,2,5,6-Tetrahydropyrid-4-yl)indol-5-ylmethyl]-4-methylthiazole]	≥ 1000

Same assay, conditions: method of Heuring and Peroutka, J. Neuroscience, 7, 894 (1987); read-out: IC50 (5-HT1D activity)

SMILES	IC50 [nM]
CN(C)CCc1c[nH]c2ccc(-c3nccs3)cc12 [Example 7, 2-[3-(N,N-Dimethylaminoethyl)indol-5-yl]thiazole]	≥ 1000
CN(C)CCc1c[nH]c2ccc(-c3nc(CNc4ccccc4)cs3)cc12 [Example 13, 2-[3-(N,N-Dimethylaminoethyl)-indol-5-yl]-4-(phenylaminomethyl)thiazole]	≥ 1000
CN(C)CCc1c[nH]c2ccc(-c3nc(COc4ccccc4)cs3)cc12 [Example 15A, 2-[3-(N,N-Dimethylaminoethyl)indol-5-yl]-4-(phenoxymethyl)thiazole]	≥ 1000
CN(C)CCc1c[nH]c2ccc(-c3nc(CSc4ccccc4)cs3)cc12 [Example 15B, 2-[3-(N,N-Dimethylaminoethyl)indol-5-yl)-4-(thiophenoxymethyl)thiazole]	≥ 1000
CN1CCC(c2c[nH]c3ccc(-c4nc(CNc5ccccc5)cs4)cc23)CC1 [Example 28, 2-[3-(1-Methylpiperidin-4-yl)indol-5-yl]-4-(phenylaminomethyl)thiazole]	≥ 1000
